Measurements taken from patent publication US6448283B1, “Methods for preventing/treating damage to sensory hair cells and cochlear neurons” (Cephalon, Inc., priority 1998, dated 2002).
“Also recorded” adds a separate entry of the source.

Key:
[1] = system: hair cells (IHC, OHC) of the organ of Corti; test: Cytocochleograms of missing hair cells after noise exposure (Example 2); type: in vivo, guinea pig; conditions: 2 weeks after noise exposure
[2] = system: hair cells of the organ of Corti; test: TUNEL staining of apoptotic hair cells in noise-exposed cochleas; type: in vivo, guinea pig; conditions: first 6 days after noise exposure
Description: Adult Dunkin-Hartley female guinea pigs (weight 300-500 g) were exposed, 4 animals at a time, to octave band noise, with a center frequency of 4.0 kHz, 120 dB SPL for 6 hr as described in Example 1. Fragmented hair cell nuclei were assessed from noise-exposed cochleas immediately and 1, 2, 4, 6, 8 and 14 days after noise exposure. Noise-exposed and nonexposed guinea pigs were decapitated under deep anesthesia and inner ears were perilymphatically perfused with 4% paraformaldehyde in PBS, and processed for […] paraffin-embedded sections (Ylikoski et al., Hear Res 65:69-78, 1993; Ylikoski et al., Hear Res 124:17-26, 1998). TUNEL-staining was performed as described below. DNA fragmentation was also verified by DAPI nuclear counterstain (see below). Further, trauma-induced nuclear fragmentation was verified by morphological analysis of contralateral cochleas that were perilymphatically fixed with 2.5% glutaraldehyde in 0.1M phosphate buffer, pH 7.4, postfixed with 1% osmium tetroxide, embedded in epoxy resin, and prepared for surface preparations (see below). Selected cochlear segments were then cut in transverse and horizontal planes to semi-thin ([…]) sections that were stained with 1% toluidine blue. Analysis was done under an Olympus Provis microscope equipped with Nomarski optics. […]

[3] = system: outer hair cells in organotypic cultures of the neonatal organ of Corti; test: Hair cell counts in neomycin-exposed cochlear explant cultures; type: cell-based, rat
Description: (§1) The basal half of cochleas containing the basal and middle turns were dissected from postnatal day 2 Wistar rats. The cultures were maintained on Nuclepore filters (pore size […]; Pleasanton, Calif.) placed on a metal grid in F12 medium (Life Technologies, Gaithersburg, Md.) containing 15% fetal bovine serum (Life Technologies). After a 2-hour-long stabilization period, explants were exposed to 100 mM neomycin sulfate (Sigma, St Louis, Mo.) for 48 hr.
(§2) Explants were fixed with 4% paraformaldehyde/0.5% glutaraldehyde in phosphate buffered saline (PBS), pH 7.4, for 30 min and dissected for surface preparations. They were stained with a 1:100 dilution of rhodamine-phalloidin in PBS containing 0.25% Triton X-l 00 overnight at 4° C. and mounted in Vectashield (Vector). Outer hair cell (OHC) numbers were quantified with a Zeiss Axiovert 100/135 epifluorescent microscope (Germany) connected to a Bio-Rad MRC-1024 confocal laser scanning system (Richmond, Calif.). Hair cells were characterized as missing if no stereocilia and cuticular plate were observed. Numbers of OHCs were evaluated using a 40×objective lens and an ocular grid. Nine to 1 fields filled by 30 OHCs in each of the 3 rows (when all of them were present) were studied from each explant. Basal and middle coils were analyzed separately. Three separate experiments, each including 4 explants of both conditions (neomycin and neomycin plus Formula II) were analyzed.
as §1, with “μM” for “mM”, “hr. The compounds of Formula I and the compound of Formula I were added at 500 nM at the time of initiation of the cultures and every 12 hr thereafter. Neomycin plus vehicle was used as a control.” for “hr.”
as §2, with “X-100” for “X-l 00”, “40x objective” for “40×objective”, “Several” for “Nine to 1”, “separately.” for “separately. Three separate experiments, each including 4 explants of both conditions (neomycin and neomycin plus Formula II) were analyzed.”

[4] = system: gentamicin-treated guinea pigs; test: ABR threshold shifts after gentamicin treatment; type: in vivo, guinea pig; conditions: gentamicin 120 mg/kg s.c. 14 days plus Formula II 1 mg/kg daily; day 30; n=8; P<0.01
Description: Adult Dunkin-Hartley female guinea pigs (weight 300-400 g) were used. They were given free access to water and a regular guinea pig diet. The animals were given 1 week of adjustment before baseline ABR recordings and gentamicin (GM) treatment.
Two experimental groups were formed. Group 1 guinea pigs served as control and were treated with gentamicin only. The animals were injected s.c. with gentamicin at 120 mg/kg body weight, once daily for 14 days. Three guinea pigs (yielding a total of 6 inner ears) were included in this group. The animals were decapitated 30 days after the start of the injections.
Group 2 guinea pigs were treated with gentamicin plus Formula II. The animals were injected s.c. with GM at 120 mg/kg body weight, plus Formula II at 1 mg/kg, once daily for 14 days. Formula II treatment started 1 day before GM injections. Formula II treatment was continued for 28 or 29 days. Four guinea pigs (8 inner ears) were included in this group. The animals were decapitated 30 days after the start of GM injections.
ABRs were determined 1 day before GM injections (baseline values) and at day 30 after the start of the GM injections. […] Thresholds were determined at frequencies 2, 4, 8, 16 and 32 kHz from a set of responses at varying intensities with 5 dB intervals and 1000 sweeps near the threshold. ABRs were measured with System II hardware and BioSig software. […]

With CCSCc1ccc2c(c1)c1c3c(c4c5cc(CSCC)ccc5n5c4c1n2C1C[C@](O)(C(=O)OC)[C@]5(C)O1)CNC3=O [Formula II] the “hair cell loss versus noise-exposed control (cytocochleograms)” value ([1]; in words) was “rescues IHCs as well as OHCs of each of the 3 rows; also recorded: significantly lower percentage of sensory hair cells were lost”, the “extent of the area of destruction of the organ of Corti” value ([1]; Formula II treated cochleas) was 0.1-0.2 mm and the “amount of apoptotic hair cell loss versus control cochleas” value [2] was “less”. The “OHCs in the basal turn preserved” value ([3]; 500 nM Formula II co-incubated with neomycin for 48 hr, n=12) was “Approximately 90%”, the “neomycin-induced sensory hair cell loss/degeneration” value ([3]; 500 nM compound together with neomycin, 48 hr, in words) was “reduced; also recorded: prevented hair cell loss” and the viability at 0.5 µM ([3]; Rattus norvegicus, 48 h, compound 500 nM plus 100 μM neomycin 48 hr, NEO = neomycin plus vehicle, each line a separate count, read-out: % preserved) was 92%. The “ABR threshold shift versus control cochleas (GM only)” value [4] was “less threshold shift at all frequencies tested”.
